# Laboratory results taken from patent EP1695704A1, “Derivatives of aryl (or heteroaryl) azolylcarbinols for the treatment of fibromyalgia” (LABORATORIOS DEL DR. ESTEVE, S.A., priority 2005, dated 2006).
# Columns and labels:
# Assay type in all cases: in vivo
# [1] = tested on: Unilateral ligature of the sciatic nerve; experiment: Neuropathic pain, Bennet model, mechanical response thresholds; conditions: rats with sciatic nerve ligature; dose-effect study; Figure 1
# Description: Neuropathic Pain - Dose-effect study of Example 1 Phase I (Bennet model): Unilateral ligature of the sciatic nerve (mechanical response thresholds)
# According to the Model described by Bennet (Bennet and Xie, Pain 1988, 33, 87-107) a well established model for neuropathic pain, rats were operated with the following surgical procedure,
# (§1) Rats were anaesthesized using Pentobarbital. Then the skin was incised. Following that a sciatic nerve ligature was placed and the incision was closed with silk thread.
# (§2) In Sham-operated control animals the identical surgical procedures were followed, but the nerve was not ligatured.
# [2] = tested on: Unilateral ligature of the sciatic nerve; experiment: Neuropathic pain, Bennet model, thermal response thresholds; conditions: rats with sciatic nerve ligature; dose-effect study; Figure 2
# Description: Neuropathic Pain - Dose-effect study of Example 1 Phase I (Bennet model): Unilateral ligature of the sciatic nerve (thermal response thresholds)
# According to the Model described by Bennet (Bennet and Xie, Pain 1988, 33, 87-107) a well established model for neuropathic pain, rats were operated with the following surgical procedure:
# as §1, §2
# [3] = tested on: ptosis by reserpine in mice; experiment: Depression, Reserpine test; conditions: Mus musculus, po
# Protocol: Depression, Reserpine test
# Mice were prepared according to the Model described by C.J.E. Niemegeers "Antagonism of Reserpine-like activity" in "Antidepressants", Ed. by S. Fielding, Futura Publishing Co., New York 1975. Pags 73-98 and Garattini S. et al. "Antagonists of Reserpine-induced eyelid ptosis" Med.Exp. 3 : 315-320 (1960):
# The inhibition shown by the compound according to example 1 in ptosis by reserpine in mice was: […]
# Mice = experiment: Depression, Mice tail Suspension; conditions: Mus musculus, po
# Protocol: Depression, Mice tail Suspension
# Mice were prepared according to the Model described by
# The inhibition shown by the compound according to example 1 was: […]
compound,measurement,setting,value
"CN(C)CCOC(c1ccccc1)c1ccnn1C (racemic) [Example 1, (±)-5-{α-[2-(dimethylamino)ethoxy]benzyl}-1-methyl-1H-pirazole]",effect on vocalization threshold using a mechanical stimulus,[1],clear dose-dependent effect
same,effect on struggle latency in a low temperature thermal response threshold,[2],clear dose-dependent effect
same,ED50,[3],26.2 mg/kg
same,inhibition at 10 mg/kg,[3]; dose 10 mg/kg p.o.,21%
same,inhibition at 20 mg/kg,[3]; dose 20 mg/kg p.o.,47%
same,inhibition at 40 mg/kg,[3]; dose 40 mg/kg p.o.,75%
same,inhibition at 80 mg/kg,[3]; dose 80 mg/kg p.o.,75%
same,inhibition at 160 mg/kg,[3]; dose 160 mg/kg p.o.,71%
same,ED50,Mice,17 mg/kg
same,inhibition at 10 mg/kg,Mice; dose 10 mg/kg p.o.,38%
same,inhibition at 20 mg/kg,Mice; dose 20 mg/kg p.o.,54%
same,inhibition at 40 mg/kg,Mice; dose 40 mg/kg p.o.,71%
same,inhibition at 80 mg/kg,Mice; dose 80 mg/kg p.o.,70%
